Molecules are shown by their SMILES.

The text below walks through data of publication PMC11062922 (Nature Chemical Biology, 2023).

Assay [1] has as its system IL-10 secretion in primary bone marrow-derived dendritic cells (BMDCs). The experiment in a line: IL-10 cytokine secretion assay (ELISA) in Zymosan-stimulated primary BMDCs. It counts as cell-based, mouse. The following applies: murine BMDCs, inhibitor 30 min before Zymosan stimulation. The procedure: A subsequent full dose–response experiment confirmed potent and selective binding to SYK ( Kdapp = 58 nM, […] = 0.60; Extended Data Fig. 5a,b). […] One of the effects of Zymosan is that it activates Dectin-1 signaling, in turn activating SYK and leading to increased IL-10 cytokine production (Fig. 3c)[34]. Treatment of cells with the respective SYK inhibitors before Zymosan stimulation indeed led to decreased levels of IL-10 in a dose-dependent fashion (Fig. 3d). […] In line with the cytokine readout, we observed a dose depended reduction of pTyr525/526 indicating SYK inhibition in live cells (Fig. 3e and Extended Data Fig. 5c).
Primary BMDCs were obtained from 9-week-old C57BL/6 mice that were maintained under standard specific pathogen-free conditions. BMDCs were differentiated for 7 days in Roswell Park Memorial Institute medium (Gibco) and granulocyte-macrophage colony-stimulating factor. On day seven, BMDCs were seeded in 96-well plates at 10^5 cells per well in 100 µl of culture medium followed by incubation for 4 h at 37 °C. Subsequently, cells were incubated with SYK inhibitors for 30 min followed by stimulation with Zymosan (final concentration of 50 µg ml^−1; Invivogen) and dispersed in culture medium for 24 h. […] For cytokine secretion quantification, cell culture medium was collected and concentrations of IL-10 in the supernatant were determined using mouse enzyme-linked immunosorbent assay kits (IL-10: Invitrogen) according to the manufacturer’s protocol. Experiments were performed in biological triplicates.
In general terms: ELISA stands for enzyme-linked immunosorbent assay.

The next assay deals with T1, PAK4 (Homo sapiens, UniProt O96013).
T1 construct: a mixture of lysates from five cancer cell lines; endogenous in cells
T1 sequence (O96013 whole entry): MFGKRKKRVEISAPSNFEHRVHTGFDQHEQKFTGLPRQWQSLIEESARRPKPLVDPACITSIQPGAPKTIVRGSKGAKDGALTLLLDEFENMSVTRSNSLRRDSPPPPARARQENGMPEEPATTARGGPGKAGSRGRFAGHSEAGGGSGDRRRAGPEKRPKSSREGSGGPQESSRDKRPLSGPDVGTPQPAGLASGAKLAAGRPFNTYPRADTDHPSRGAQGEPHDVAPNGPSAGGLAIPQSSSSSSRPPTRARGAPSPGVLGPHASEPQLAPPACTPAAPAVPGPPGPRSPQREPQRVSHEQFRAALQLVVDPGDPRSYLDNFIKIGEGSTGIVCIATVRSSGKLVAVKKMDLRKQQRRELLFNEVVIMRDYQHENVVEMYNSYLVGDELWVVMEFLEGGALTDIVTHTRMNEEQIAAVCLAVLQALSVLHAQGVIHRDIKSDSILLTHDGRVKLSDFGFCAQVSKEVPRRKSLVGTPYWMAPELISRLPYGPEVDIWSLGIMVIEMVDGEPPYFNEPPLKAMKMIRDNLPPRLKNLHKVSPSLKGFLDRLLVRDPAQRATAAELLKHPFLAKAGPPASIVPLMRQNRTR
The experiment in a line: Kinobeads full dose-response competition binding: PAK4. Conditions: Gene Name PAK4, doses in nM.

The target in the next assay is T2, PRKCA (Homo sapiens, UniProt P17252).
T2 construct: endogenous in cells
The experiment in a line: Kinobeads full dose-response competition binding: PRKCA. Conditions: Gene Name PRKCA, doses in nM.

A further assay addresses T3, ACOX1 (Homo sapiens, UniProt Q15067).
T3 construct: endogenous in cells
T3 sequence (Q15067 1-660): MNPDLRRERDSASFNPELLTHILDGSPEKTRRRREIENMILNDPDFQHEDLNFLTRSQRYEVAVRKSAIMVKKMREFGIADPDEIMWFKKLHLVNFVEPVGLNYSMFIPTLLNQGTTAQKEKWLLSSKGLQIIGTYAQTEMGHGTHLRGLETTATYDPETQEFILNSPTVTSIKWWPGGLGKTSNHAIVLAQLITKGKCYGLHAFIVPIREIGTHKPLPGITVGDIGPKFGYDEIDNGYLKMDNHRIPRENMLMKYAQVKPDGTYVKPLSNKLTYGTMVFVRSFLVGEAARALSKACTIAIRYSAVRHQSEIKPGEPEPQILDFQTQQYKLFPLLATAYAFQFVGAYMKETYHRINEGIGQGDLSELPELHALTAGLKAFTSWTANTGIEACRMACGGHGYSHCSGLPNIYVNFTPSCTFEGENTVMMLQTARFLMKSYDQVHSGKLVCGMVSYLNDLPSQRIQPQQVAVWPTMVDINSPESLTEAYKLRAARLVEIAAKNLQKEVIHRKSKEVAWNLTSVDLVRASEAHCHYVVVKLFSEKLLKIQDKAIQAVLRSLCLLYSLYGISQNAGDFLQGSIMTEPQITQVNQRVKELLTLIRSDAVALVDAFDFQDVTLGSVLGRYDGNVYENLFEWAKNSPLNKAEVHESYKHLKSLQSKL
Description: Kinobeads two-dose competition binding: ACOX1.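 On all read-outs here: competition of compounds with immobilized broad-spectrum kinase inhibitor beads in cell lysate at 100 and 1,000 nM, 45 min at 4 °C, bead-bound protein quantified by label-free MS versus DMSO.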 Conditions: for CATDS: sheet CATDS matrix 2, Gene Name ACOX1.

Another assay relates to FLT3. The experiment in a line: Kinobeads two-dose competition binding: FLT3. On the set-up: species or system human.
Assay [2] concerns the target T4, endogenous kinases and other proteins enriched by Kinobeads from mixed lysates of K-562, COLO-205, MV-4-11, SK-N-BE(2) and OVCAR-8 (Homo sapiens, UniProt O43353).
T4 construct: to maximize the representation of endogenous proteins; endogenous in cells
The experiment in a line: Kinobeads competition binding profiling, two doses (100 nM and 1 µM).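 Further: inhibitor preincubated 45 min at 4 °C in cell lysate, then bead pulldown. Bound protein quantified by label-free mass spectrometry relative to DMSO vehicle control.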 The following applies: target RIPK2; read-out: apparent Kd.

For the next assay, the target named is PKN3 (Homo sapiens, UniProt Q6P5Z2). On the set-up: full-length PKN3, CSNK2A1 or CSNK2A2 ORF; host or cells: HEK293T. The following applies: reported for the most potent 4-anilinoquin(az)oline; cited from earlier work.
Assay [3] deals with T5, ABL1 (Homo sapiens, UniProt P00519). The experiment in a line: Kinobeads two-dose competition binding: ABL1. Conditions: sheet CATDS matrix 2; Gene Name ABL1.
T5 sequence (P00519 28-1130 limits assumed): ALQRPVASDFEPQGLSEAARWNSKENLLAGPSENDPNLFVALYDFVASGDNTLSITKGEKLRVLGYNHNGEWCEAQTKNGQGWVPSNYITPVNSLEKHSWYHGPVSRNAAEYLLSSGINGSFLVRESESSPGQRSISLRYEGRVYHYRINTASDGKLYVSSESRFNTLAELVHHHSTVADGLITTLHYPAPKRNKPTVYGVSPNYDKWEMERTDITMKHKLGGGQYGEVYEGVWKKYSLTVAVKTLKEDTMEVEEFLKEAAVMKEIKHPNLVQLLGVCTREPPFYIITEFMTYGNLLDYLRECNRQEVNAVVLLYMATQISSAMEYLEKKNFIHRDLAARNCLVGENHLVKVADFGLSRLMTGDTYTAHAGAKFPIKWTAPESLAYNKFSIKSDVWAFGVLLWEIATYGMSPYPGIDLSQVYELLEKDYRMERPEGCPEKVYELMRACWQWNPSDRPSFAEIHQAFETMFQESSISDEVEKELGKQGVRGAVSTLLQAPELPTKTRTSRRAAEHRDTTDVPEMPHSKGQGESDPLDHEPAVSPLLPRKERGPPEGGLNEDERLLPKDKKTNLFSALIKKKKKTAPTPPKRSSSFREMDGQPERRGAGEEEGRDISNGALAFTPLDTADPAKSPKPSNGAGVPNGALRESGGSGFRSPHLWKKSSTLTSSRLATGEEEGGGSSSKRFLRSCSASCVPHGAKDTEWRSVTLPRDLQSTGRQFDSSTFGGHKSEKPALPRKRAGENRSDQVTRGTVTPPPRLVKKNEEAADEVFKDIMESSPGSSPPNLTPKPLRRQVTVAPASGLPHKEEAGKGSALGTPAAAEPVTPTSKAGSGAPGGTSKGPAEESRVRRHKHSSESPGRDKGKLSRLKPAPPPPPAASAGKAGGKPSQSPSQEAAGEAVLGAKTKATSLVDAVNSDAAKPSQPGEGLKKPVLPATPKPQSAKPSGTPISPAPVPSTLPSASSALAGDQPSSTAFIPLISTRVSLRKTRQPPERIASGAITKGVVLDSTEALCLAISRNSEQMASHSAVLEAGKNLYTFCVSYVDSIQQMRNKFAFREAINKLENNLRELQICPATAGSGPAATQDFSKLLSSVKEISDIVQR
Assay [4] has as its target T6, ABL2 (Homo sapiens, UniProt P42684).
T6 construct: endogenous in cells
Description: Kinobeads two-dose competition binding: ABL2. Conditions: sheet CATDS matrix 2; Gene Name ABL2.

Assay [5] deals with T7, ACAD11 (Homo sapiens, UniProt Q709F0).
T7 construct: endogenous in cells
T7 sequence (Q709F0 1-780): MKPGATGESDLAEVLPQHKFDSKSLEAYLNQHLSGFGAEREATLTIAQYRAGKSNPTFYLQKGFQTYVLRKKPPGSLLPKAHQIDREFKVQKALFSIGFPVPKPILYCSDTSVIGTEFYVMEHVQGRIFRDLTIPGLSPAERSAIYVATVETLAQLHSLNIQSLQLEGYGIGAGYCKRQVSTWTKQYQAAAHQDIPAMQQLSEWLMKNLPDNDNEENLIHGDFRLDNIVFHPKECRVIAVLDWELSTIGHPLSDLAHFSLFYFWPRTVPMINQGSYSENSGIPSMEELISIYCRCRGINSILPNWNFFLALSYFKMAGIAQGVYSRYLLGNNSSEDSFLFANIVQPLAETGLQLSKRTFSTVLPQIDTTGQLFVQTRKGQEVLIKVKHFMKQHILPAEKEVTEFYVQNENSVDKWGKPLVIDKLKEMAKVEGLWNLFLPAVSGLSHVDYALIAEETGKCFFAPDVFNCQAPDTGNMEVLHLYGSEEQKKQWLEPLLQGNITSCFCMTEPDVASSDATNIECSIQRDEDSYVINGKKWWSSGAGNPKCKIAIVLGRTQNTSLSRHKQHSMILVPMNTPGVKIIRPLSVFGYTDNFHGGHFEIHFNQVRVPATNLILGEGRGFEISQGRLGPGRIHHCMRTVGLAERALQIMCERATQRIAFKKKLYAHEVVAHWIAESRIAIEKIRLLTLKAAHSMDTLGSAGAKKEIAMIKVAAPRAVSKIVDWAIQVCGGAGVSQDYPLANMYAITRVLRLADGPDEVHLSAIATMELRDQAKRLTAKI
The experiment in a line: Kinobeads two-dose competition binding: ACAD11. The following applies: sheet CATDS matrix 2; Gene Name ACAD11.

Assay [6] has as its target T7, ACAD11. Description: Kinobeads two-dose competition binding: ACAD11. The following applies: sheet "Kinobeads Drugmatrix - all"; unit inferred; read-out: Kinobeads Drugmatrix - all: apparent Kd, ACAD11.
The next assay concerns the target T8, AAK1 (Homo sapiens, UniProt Q2M2I8).
T8 construct: to maximize the representation of endogenous proteins; endogenous in cells
Description: Kinobeads two-dose competition binding: AAK1.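 On all read-outs here: kinobeads competition pulldown from cell lysate, compound preincubated 45 min at 4 °C, bead-bound protein measured by label-free mass spectrometry against DMSO vehicle control.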 Conditions: for potency estimated from few doses: sheet "Kinobeads Drugmatrix - all", unit inferred, same values below 1000 recur in sheet "nanomolar", read-out: Kinobeads Drugmatrix - all: apparent Kd, AAK1; for CATDS: sheet CATDS matrix 2, Gene Name AAK1.

In assay [7] the test system is endogenous kinases and other proteins enriched by Kinobeads from mixed lysates of K-562, COLO-205, MV-4-11, SK-N-BE(2) and OVCAR-8. Description: Kinobeads competition binding profiling, two doses (100 nM and 1 µM).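 Further: inhibitor preincubated 45 min at 4 °C in cell lysate, then bead pulldown. Bound protein quantified by label-free mass spectrometry relative to DMSO vehicle control.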 Conditions: in words. On the set-up: species or system human.
Assay [8] deals with T5, ABL1. Description: Kinobeads two-dose competition binding: ABL1. Conditions: sheet "Kinobeads Drugmatrix - all"; unit inferred; read-out: Kinobeads Drugmatrix - all: apparent Kd, ABL1.
Assay [9] concerns the target T6, ABL2. Description: Kinobeads two-dose competition binding: ABL2. Conditions: sheet "Kinobeads Drugmatrix - all"; unit inferred; read-out: Kinobeads Drugmatrix - all: apparent Kd, ABL2.
The target of a further assay is T9, ABCD3 (Homo sapiens, UniProt P28288).
T9 construct: endogenous in cells
T9 sequence (P28288 1-659): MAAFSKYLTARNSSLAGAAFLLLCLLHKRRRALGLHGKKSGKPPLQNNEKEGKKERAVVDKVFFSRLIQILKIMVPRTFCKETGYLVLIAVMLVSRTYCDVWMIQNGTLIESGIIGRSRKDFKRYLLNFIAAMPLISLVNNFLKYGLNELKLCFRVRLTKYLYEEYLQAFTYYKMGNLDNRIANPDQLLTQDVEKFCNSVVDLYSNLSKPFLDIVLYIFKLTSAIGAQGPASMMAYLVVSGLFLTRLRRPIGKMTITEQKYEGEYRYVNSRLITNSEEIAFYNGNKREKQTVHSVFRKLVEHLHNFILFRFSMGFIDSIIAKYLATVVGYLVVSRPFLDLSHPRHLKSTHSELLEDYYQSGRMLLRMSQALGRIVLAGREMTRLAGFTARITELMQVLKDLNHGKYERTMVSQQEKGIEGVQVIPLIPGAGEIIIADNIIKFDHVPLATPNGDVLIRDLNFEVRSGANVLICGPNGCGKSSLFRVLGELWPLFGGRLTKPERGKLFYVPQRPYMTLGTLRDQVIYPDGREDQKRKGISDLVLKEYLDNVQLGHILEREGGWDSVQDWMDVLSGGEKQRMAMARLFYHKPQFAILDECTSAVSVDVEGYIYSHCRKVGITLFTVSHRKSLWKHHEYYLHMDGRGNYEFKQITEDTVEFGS
Description: Kinobeads two-dose competition binding: ABCD3. Conditions: sheet "Kinobeads Drugmatrix - all"; unit inferred; read-out: Kinobeads Drugmatrix - all: apparent Kd, ABCD3.

The next assay concerns the target T10, GRK6 (Homo sapiens, UniProt P43250).
T10 construct: endogenous in cells
Description: Kinobeads two-dose competition binding: GRK6. Conditions: Kinobeads two-dose, Drugmatrix - all 2; read-out: apparent Kd GRK6.

The mark [10] stands for this setting: EC50 with Correction, read-out: apparent Kd.

T8 sequence (Q2M2I8 whole entry): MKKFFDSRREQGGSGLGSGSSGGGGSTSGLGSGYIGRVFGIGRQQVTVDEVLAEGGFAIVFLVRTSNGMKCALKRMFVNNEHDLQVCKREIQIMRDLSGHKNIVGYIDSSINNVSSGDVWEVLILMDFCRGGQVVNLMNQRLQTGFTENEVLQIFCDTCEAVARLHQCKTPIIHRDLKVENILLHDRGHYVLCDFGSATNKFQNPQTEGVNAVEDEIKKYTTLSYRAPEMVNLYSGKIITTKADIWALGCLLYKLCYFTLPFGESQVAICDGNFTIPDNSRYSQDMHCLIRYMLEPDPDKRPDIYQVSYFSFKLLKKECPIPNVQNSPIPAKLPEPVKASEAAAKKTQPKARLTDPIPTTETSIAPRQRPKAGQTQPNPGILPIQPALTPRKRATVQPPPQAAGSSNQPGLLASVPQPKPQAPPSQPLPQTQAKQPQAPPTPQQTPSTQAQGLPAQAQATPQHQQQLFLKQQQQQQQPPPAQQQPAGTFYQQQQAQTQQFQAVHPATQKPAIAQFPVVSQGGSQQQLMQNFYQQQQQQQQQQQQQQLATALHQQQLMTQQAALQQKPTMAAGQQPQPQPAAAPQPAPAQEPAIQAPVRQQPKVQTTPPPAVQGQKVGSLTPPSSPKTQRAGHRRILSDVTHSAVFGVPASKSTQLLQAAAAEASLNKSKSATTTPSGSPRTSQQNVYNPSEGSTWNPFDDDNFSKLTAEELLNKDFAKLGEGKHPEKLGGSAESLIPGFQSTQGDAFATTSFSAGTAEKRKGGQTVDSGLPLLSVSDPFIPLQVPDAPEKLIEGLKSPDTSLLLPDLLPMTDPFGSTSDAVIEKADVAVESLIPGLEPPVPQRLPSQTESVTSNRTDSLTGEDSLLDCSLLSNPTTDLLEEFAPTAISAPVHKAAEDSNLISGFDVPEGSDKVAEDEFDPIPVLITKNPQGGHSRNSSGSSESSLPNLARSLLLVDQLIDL
T6 sequence (P42684 whole entry): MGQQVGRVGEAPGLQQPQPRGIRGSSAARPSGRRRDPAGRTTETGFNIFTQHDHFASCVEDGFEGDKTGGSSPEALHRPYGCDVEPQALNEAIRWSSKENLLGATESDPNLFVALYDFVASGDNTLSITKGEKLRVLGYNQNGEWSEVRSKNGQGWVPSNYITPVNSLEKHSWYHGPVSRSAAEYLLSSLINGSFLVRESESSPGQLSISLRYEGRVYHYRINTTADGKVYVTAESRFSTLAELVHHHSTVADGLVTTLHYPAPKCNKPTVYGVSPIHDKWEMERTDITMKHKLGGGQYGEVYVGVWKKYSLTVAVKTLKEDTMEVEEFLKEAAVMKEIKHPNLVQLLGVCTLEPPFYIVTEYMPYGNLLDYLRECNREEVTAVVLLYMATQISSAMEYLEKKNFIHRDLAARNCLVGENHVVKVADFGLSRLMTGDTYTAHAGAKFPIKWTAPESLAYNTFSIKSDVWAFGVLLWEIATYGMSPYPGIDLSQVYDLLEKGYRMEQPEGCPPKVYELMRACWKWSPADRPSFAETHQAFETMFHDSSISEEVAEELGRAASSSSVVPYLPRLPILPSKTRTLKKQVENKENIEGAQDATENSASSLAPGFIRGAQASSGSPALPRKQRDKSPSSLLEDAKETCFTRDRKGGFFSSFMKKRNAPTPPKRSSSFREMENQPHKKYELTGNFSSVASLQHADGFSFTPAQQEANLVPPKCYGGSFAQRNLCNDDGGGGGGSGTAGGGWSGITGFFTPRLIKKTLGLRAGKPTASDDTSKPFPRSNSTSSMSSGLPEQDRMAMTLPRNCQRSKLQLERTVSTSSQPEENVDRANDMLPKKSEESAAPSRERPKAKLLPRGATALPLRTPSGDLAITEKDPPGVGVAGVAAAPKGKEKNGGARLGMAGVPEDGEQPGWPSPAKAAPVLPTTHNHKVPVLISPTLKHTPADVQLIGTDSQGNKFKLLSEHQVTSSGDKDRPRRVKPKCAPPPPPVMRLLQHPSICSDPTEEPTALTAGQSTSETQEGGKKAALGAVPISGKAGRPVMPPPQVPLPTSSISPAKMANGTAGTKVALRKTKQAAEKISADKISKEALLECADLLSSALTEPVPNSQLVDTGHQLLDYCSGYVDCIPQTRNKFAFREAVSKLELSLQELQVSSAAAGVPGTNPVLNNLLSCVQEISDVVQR
T10 sequence (P43250 whole entry): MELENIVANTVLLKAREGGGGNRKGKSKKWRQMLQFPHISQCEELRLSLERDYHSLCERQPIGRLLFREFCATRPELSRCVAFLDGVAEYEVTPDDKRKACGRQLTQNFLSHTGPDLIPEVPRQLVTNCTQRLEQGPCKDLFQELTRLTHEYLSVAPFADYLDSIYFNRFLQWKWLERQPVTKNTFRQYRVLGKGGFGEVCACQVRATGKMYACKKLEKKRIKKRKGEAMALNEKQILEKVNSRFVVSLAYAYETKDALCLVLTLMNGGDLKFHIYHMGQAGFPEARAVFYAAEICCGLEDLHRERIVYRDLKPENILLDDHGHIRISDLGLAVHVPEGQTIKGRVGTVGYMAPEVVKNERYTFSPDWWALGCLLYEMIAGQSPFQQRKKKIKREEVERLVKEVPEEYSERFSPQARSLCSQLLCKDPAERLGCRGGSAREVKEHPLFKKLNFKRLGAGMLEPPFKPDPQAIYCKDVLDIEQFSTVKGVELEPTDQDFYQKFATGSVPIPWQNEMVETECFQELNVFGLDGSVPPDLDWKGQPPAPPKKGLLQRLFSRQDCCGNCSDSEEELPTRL

Usually EC50 stands for the concentration at which the effect is half-maximal. Low readings indicate a more potent agent, high ones a less potent agent. On to `Cc1cccc(Nc2nc(N[C@H]3CCCC[C@H]3N)ncc2C(N)=O)c1` [GSK986310C], for which, in assay [1], the IL-10 levels result was “dose-dependent reduction”. In addition, the values for the Kd on PAK4 (setting [10]) and at PRKCA (setting [10]) were 65.9 nM and 272 nM, respectively. Also, the figures for the EC50 at PAK4 (eight-dose curve fit) and on PRKCA (eight-dose curve fit) were 135 nM and 446 nM, respectively.
As to `O=C1Nc2ccc(F)cc2/C1=C/c1ccc[nH]1` [RO0272148-000], the potency estimated from few doses on ACOX1 (Kinobeads two-dose, mixed cell lysate, read-out: Kdapp ACOX1) was more than 1000 nM; in the assay with FLT3 (Kinobeads two-dose (100 nM and 1 µM), mixed cell lysate, read-out: Kdapp FLT3), 99 nM. Besides, in the assay on FLT3 (selectivity score from Kinobeads two-dose data), the CATDSFLT3 came to 0.87.
Take `CNC(=O)c1cncc(/C=C/c2c(Cl)cccc2Cl)c1` [GW445014X]: the potency estimated from few doses in [2] was 773 nM.
For the compound `COc1cc(Nc2ccnc3cc(I)ccc23)cc(OC)c1OC` [UNC-CA94], the “in-cell target engagement PKN3” value at PKN3 is on record as 1.3 µM.
For `O=c1[nH]ccc2nc(N[C@@H]3CCNC3)nc(Nc3ccc4c(c3)S(=O)(=O)CC4)c12` [GSK2181306A], the CATDS came out at 0 at ACOX1; 0 on ABL1 [3]; 0 on ABL2 [4]; 0.02228 at ACAD11 [5]; 0.01021 at AAK1. Moreover, the values for the potency estimated from few doses on ACAD11 [6] and at AAK1 were 145 nM and 800 nM, respectively.
With `Cc1cc(-c2ccnc(Nc3cccc(C#N)c3)n2)cc(C)c1O` [GSK1440913A], the CATDS turned out to be 0 at ACOX1; 0 on ABL1 [3]; 0 at ABL2 [4]; 0.1181 on ACAD11 [5]; 0.2295 on AAK1. The potency estimated from few doses on ACAD11 [6] is 425 nM; at AAK1, 120 nM.
In the case of `NCC(C(=O)Nc1cc(Br)c(-c2ccnc3[nH]ccc23)s1)c1ccccc1` (centres unmarked) [GSK1269851A], the “selectivity in the Kinobeads assay (CATDSmost potent)” value in assay [7] was “unselective”. In addition, the CATDS came to 0 on ACOX1; 0 at ABL1 [3]; 0.01467 on ABL2 [4]; 0 at ACAD11 [5]; 0.03418 at AAK1. Also, the potency estimated from few doses on ABL1 [8] was more than 1000 nM; on ABL2 [9] it was 433 nM; at ACAD11 [6] it was more than 1000 nM; on AAK1 it was 84.4 nM.
With `COc1ccc(Nc2nccc(N3CCC(NC(=O)Nc4ccc5c(c4)OCO5)C3)n2)cc1` (centres unmarked) [GSK1379745A], the CATDS on ACOX1, on ABL1 [3], at ABL2 [4], at ACAD11 [5] and on AAK1 was 0 each time. Besides, at ABCD3, the potency estimated from few doses is more than 1000 nM.
With `CCn1cc(-c2ccnc3[nH]c(-c4cccc(CN(C)C)c4)cc23)c(-c2ccc(NC(=O)N(C)C)cc2)n1` [GSK1070916], the CATDS on ACOX1, on ABL1 [3], at ABL2 [4], at ACAD11 [5] and on AAK1 was 0 in each case. Moreover, the potency estimated from few doses on ABCD3 was more than 1000 nM.
For the compound `CCc1nc(-c2cccc(N(C)S(=O)(=O)c3ccccc3)c2)c(-c2ccnc(Nc3ccc(N4CCN(C(C)=O)CC4)nc3)n2)s1` [GSK1645895A], the CATDS at ACOX1, on ABL1 [3], at ABL2 [4], on ACAD11 [5] and at AAK1 was 0 throughout. In addition, the potency estimated from few doses at ABCD3 was more than 1000 nM.
Take `c1ccc(-c2cnc3nccnn23)cc1` [AH20685XX]: the potency estimated from few doses at GRK6 is more than 1000 nM.
